US9249131B2, “Modulators of ATP-binding cassette transporters” (Vertex Pharmaceuticals Incorporated, priority 2003, dated 2016)

Target: T1, ΔF508-CFTR (Homo sapiens, UniProt P13569, DEL508-508)
T1 construct: expressed in transfected cells; host or cells: NIH3T3 mouse fibroblasts stably expressing ΔF508-CFTR for the optical, whole-cell and single-channel assays; Fisher rat epithelial (FRT) cells for Ussing chamber follow-up
Experiment: Assays for ΔF508-CFTR correction and potentiator properties (membrane potential optical and electrophysiological methods)
Type: cell-based
Conditions: CFTR modulation; for % Activity: % Efficacy; for EC50: tested using the above methods
Description: Assays for Detecting and Measuring ΔF508-CFTR Correction and Potentiator Properties of Compounds
A) Membrane Potential Optical Methods for Assaying ΔF508-CFTR Modulation Properties of Compounds
The optical membrane potential assay utilized voltage-sensitive FRET sensors described by Gonzalez and Tsien (See, Gonzales, J. E. and R. Y. Tsien (1995) “Voltage sensing by fluorescence resonance energy transfer in single cells” Biophys J 69 (4): 1272-80, and Gonzalez, J. E. and R. Y. Tsien (1997) “Improved indicators of cell membrane potential that use fluorescence resonance energy transfer” Chem Biol 4 (4): 269-77) in combination with instrumentation for measuring fluorescence changes such as the Voltage/Ion Probe Reader (VIPR) (See, Gonzalez, J. E., K. Oades, et al. (1999) “Cell-based assays and instrumentation for screening ion-channel targets” Drug Discov Today 4 (9): 431-439).
These voltage sensitive assays are based on the change in fluorescence resonant energy transfer (FRET) between the membrane-soluble, voltage-sensitive dye, DiSBAC2 (3), and a fluorescent phospholipid, CC2-DMPE, which is attached to the outer leaflet of the plasma membrane and acts as a FRET donor. Changes in membrane potential (Vm) cause the negatively charged DiSBAC2(3) to redistribute across the plasma membrane and the amount of energy transfer from CC2-DMPE changes accordingly. The changes in fluorescence emission were monitored using VIPR™ II, which is an integrated liquid handler and fluorescent detector designed to conduct cell-based screens in 96- or 384-well microtiter plates.
To identify small molecules that correct the trafficking defect associated with ΔF508-CFTR; a single-addition HTS assay format was developed. The cells were incubated in serum-free medium for 16 hrs at 37° C. in the presence or absence (negative control) of test compound. As a positive control, cells plated in 384-well plates were incubated for 16 hrs at 27° C. to “temperature-correct” ΔF508-CFTR. The cells were subsequently rinsed 3× with Krebs Ringers solution and loaded with the voltage-sensitive dyes. To activate ΔF508-CFTR, […] and the CFTR potentiator, genistein ([…]), were added along with Cl^−-free medium to each well. The addition of Cl^−-free medium promoted Cl^− efflux in response to ΔF508-CFTR activation and the resulting membrane depolarization was optically monitored using the FRET-based voltage-sensor dyes.
To identify potentiators of ΔF508-CFTR, a double-addition HTS assay format was developed. During the first addition, a Cl^−-free medium with or without test compound was added to each well. After 22 sec, a second addition of Cl^−-free medium containing 2-10 µM forskolin was added to activate ΔF508-CFTR. The extracellular Cl^− concentration following both additions was 28 mM, which promoted Cl^− efflux in response to ΔF508-CFTR activation and the resulting membrane depolarization was optically monitored using the FRET-based voltage-sensor dyes.
• Bath Solution #1: (in mM) NaCl 160, KCl 4.5, CaCl2 2, MgCl2 1, HEPES 10, pH 7.4 with NaOH. • Chloride-free bath solution: Chloride salts in Bath Solution #1 are substituted with gluconate salts. • CC2-DMPE: Prepared as a 10 mM stock solution in DMSO and stored at −20° C. • DiSBAC2(3): Prepared as a 10 mM stock in DMSO and stored at −20° C. Cell Culture
NIH3T3 mouse fibroblasts stably expressing ΔF508-CFTR are used for optical measurements of membrane potential. The cells are maintained at 37° C. in 5% CO2 and 90% humidity in Dulbecco's modified Eagle's medium supplemented with 2 mM glutamine, 10% fetal bovine serum, 1×NEAA, β-ME, 1×pen/strep, and 25 mM HEPES in 175 cm^2 culture flasks. For all optical assays, the cells were seeded at 30,000/well in 384-well matrigel-coated plates and cultured for 2 hrs at 37° C. before culturing at 27° C. for 24 hrs. for the potentiator assay. For the correction assays, the cells are cultured at 27° C. or 37° C. with and without compounds for 16-24 hours.

T1 sequence (P13569 with tags, fused parts or gaps DEL508-508): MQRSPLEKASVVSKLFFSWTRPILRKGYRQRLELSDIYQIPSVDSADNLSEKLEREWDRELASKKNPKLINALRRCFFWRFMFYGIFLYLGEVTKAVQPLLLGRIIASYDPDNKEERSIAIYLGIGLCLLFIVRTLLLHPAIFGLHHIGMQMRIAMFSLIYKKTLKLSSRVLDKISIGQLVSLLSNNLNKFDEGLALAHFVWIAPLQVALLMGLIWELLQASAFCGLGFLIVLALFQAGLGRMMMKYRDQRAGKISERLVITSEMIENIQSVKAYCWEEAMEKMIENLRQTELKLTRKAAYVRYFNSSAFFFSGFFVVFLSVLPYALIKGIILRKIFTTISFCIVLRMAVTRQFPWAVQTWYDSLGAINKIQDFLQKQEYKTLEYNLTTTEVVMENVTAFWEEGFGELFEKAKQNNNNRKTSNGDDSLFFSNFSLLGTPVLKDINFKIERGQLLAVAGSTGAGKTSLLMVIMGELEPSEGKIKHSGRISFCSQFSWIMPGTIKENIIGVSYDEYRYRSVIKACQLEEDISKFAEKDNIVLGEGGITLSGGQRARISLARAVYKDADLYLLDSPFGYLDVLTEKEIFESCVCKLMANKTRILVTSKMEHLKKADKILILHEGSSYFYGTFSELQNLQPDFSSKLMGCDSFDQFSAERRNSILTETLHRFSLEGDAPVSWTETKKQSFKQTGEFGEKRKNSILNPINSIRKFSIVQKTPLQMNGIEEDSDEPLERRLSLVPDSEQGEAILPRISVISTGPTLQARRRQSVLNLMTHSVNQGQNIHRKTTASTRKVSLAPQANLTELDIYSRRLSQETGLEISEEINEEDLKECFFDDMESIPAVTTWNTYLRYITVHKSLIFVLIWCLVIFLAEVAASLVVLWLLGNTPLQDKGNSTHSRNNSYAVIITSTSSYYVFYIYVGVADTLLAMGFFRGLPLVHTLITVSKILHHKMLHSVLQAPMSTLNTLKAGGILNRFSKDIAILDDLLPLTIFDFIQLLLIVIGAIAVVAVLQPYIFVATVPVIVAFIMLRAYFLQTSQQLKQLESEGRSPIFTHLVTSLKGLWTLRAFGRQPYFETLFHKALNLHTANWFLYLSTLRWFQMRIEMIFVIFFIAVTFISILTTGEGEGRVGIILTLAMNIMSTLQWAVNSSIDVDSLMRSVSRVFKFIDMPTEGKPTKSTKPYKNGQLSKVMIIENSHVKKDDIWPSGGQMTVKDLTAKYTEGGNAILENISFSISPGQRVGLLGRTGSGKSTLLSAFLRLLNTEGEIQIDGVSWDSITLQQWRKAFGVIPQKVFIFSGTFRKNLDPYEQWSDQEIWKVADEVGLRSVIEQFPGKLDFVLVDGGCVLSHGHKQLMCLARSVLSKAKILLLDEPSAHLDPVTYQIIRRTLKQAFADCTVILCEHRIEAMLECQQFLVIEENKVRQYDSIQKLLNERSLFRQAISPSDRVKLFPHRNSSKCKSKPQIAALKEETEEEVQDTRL

Compound | % Activity | EC50 [µM]
Cc1ccc(-c2csc(NC(=O)c3ccccc3)n2)cc1 [compound 48] | +++ (“+++” means >100%) | < 10
COc1cccc(C(=O)Nc2nc(-c3ccccc3)cs2)c1 [compound 49] | ++ (“++” means between 25% to 100%) | 10 to 25
CCC(=O)Nc1nc(-c2ccccc2)c(-c2ccccc2)s1 [compound 50] | +++ (“+++” means >100%) | < 10
COc1ccccc1C(=O)Nc1nc(-c2ccccc2)c(-c2ccccc2)s1 [compound 51] | +++ (“+++” means >100%) | < 10
Cc1ccc(C(=O)Nc2nc(-c3ccccc3)c(-c3ccccc3)s2)cc1 [compound 52] | +++ (“+++” means >100%) | < 10
O=C(Nc1nc(-c2ccccc2)cs1)c1cccc(Cl)c1 [compound 53] | +++ (“+++” means >100%) | < 10
Cc1cccc(Cc2cnc(NC(=O)c3ccccc3Cl)s2)c1 [compound 54] | ++ (“++” means between 25% to 100%) | 10 to 25
O=C(Nc1nc(-c2ccccc2)cs1)C1CCCCC1 [compound 55] | ++ (“++” means between 25% to 100%) | 10 to 25
O=C(Nc1ncc(Cc2cccc(Cl)c2Cl)s1)C(c1ccccc1)c1ccccc1 [compound 56] | ++ (“++” means between 25% to 100%) | < 10
O=C(Nc1ncc(Cc2cc(Cl)ccc2Cl)s1)C(c1ccccc1)c1ccccc1 [compound 57] | ++ (“++” means between 25% to 100%) | < 10
CCC(C(=O)Nc1nc(-c2ccncc2)cs1)c1ccccc1 (centres unmarked) [compound 58] | ++ (“++” means between 25% to 100%) | 10 to 25
O=C(O)c1ccccc1C(=O)Nc1nc(-c2ccccc2)c(-c2ccccc2)s1 [compound 59] | ++ (“++” means between 25% to 100%) | 10 to 25
CC(CC(=O)O)CC(=O)Nc1nc(-c2ccccc2)c(-c2ccccc2)s1 (centres unmarked) [compound 60] | ++ (“++” means between 25% to 100%) | 10 to 25
O=C(O)CCCC(=O)Nc1nc(-c2ccccc2)c(-c2ccccc2)s1 [compound 61] | ++ (“++” means between 25% to 100%) | 10 to 25
O=C(Nc1nc(-c2ccccc2)c(-c2ccccc2)s1)c1c(F)cccc1F [compound 62] | +++ (“+++” means >100%) | < 10
CCc1ccccc1OCC(=O)Nc1nc2ccccc2s1 [compound 63] | +++ (“+++” means >100%) | 10 to 25
Cc1nc(NC(=O)COc2ccccc2C(C)C)sc1C [compound 64] | +++ (“+++” means >100%) | < 10
O=C(CN1CCCCC1)Nc1ncc(Cc2cccc3ccccc23)s1 [compound 65] | ++ (“++” means between 25% to 100%) | 10 to 25
Cc1ccc(C(=O)Nc2nc(C)c(C)s2)cc1 [compound 66] | ++ (“++” means between 25% to 100%) | 10 to 25
Cc1ccc(C(=O)Nc2nc(-c3ccccc3)cs2)cc1 [compound 67] | ++ (“++” means between 25% to 100%) | 10 to 25
O=C(Nc1nc(-c2ccccc2)c(-c2ccccc2)s1)c1ccccc1 [compound 68] | ++ (“++” means between 25% to 100%) | < 10
COc1ccccc1-c1csc(NC(=O)c2ccccc2)n1 [compound 69] | +++ (“+++” means >100%) | 10 to 25
Cc1cccc(C(=O)Nc2nc(-c3ccccc3)c(-c3ccccc3)s2)c1 [compound 70] | +++ (“+++” means >100%) | < 10

Compound | % Activity | EC50 [µM]
Cc1ccccc1C(=O)Nc1nc(-c2ccccc2)c(-c2ccccc2)s1 [compound 71] | ++ (“++” means between 25% to 100%) | < 10
COc1ccc(C(=O)Nc2nc(-c3ccccc3)c(-c3ccccc3)s2)cc1 [compound 72] | +++ (“+++” means >100%) | < 10
O=C(Nc1nc(-c2ccccc2)c(-c2ccccc2)s1)c1ccc(Cl)c(Cl)c1 [compound 73] | ++ (“++” means between 25% to 100%) | 10 to 25
O=C(Nc1nc(-c2ccccc2)c(-c2ccccc2)s1)c1ccc(Cl)cc1 [compound 74] | ++ (“++” means between 25% to 100%) | 10 to 25
Cc1ccccc1C(=O)Nc1nc(-c2ccccc2)cs1 [compound 75] | ++ (“++” means between 25% to 100%) | 10 to 25
COc1ccccc1C(=O)Nc1nc(-c2ccccc2)cs1 [compound 76] | +++ (“+++” means >100%) | 10 to 25
O=C(Nc1nc(-c2ccccc2)cs1)c1ccccc1Cl [compound 77] | ++ (“++” means between 25% to 100%) | 10 to 25
COc1ccc(C(=O)Nc2nc(-c3ccccc3)cs2)cc1 [compound 78] | ++ (“++” means between 25% to 100%) | 10 to 25
COc1ccccc1C(=O)Nc1nc(-c2ccccc2OC)cs1 [compound 79] | ++ (“++” means between 25% to 100%) | 10 to 25
COc1cccc(-c2csc(NC(=O)c3ccccc3OC)n2)c1 [compound 80] | ++ (“++” means between 25% to 100%) | 10 to 25
COc1cccc(-c2csc(NC(=O)c3ccccc3)n2)c1 [compound 81] | ++ (“++” means between 25% to 100%) | 10 to 25
COc1cccc(C(=O)Nc2nc(-c3cccc(OC)c3)cs2)c1 [compound 82] | ++ (“++” means between 25% to 100%) | 10 to 25
COc1cccc(-c2csc(NC(=O)c3ccc(C)cc3)n2)c1 [compound 83] | +++ (“+++” means >100%) | 10 to 25
COc1ccc(C(=O)Nc2nc(-c3cccc(OC)c3)cs2)cc1 [compound 84] | ++ (“++” means between 25% to 100%) | 10 to 25
CC(C)C(=O)Nc1nc(-c2ccccc2)cs1 [compound 85] | ++ (“++” means between 25% to 100%) | 10 to 25
CC(C)CC(=O)Nc1nc(-c2ccccc2)cs1 [compound 86] | ++ (“++” means between 25% to 100%) | 10 to 25
CC(C)(C)C(=O)Nc1nc(-c2ccccc2)cs1 [compound 87] | ++ (“++” means between 25% to 100%) | 10 to 25
Cc1cccc(C(=O)Nc2nc(-c3ccccc3)cs2)c1 [compound 88] | +++ (“+++” means >100%) | 10 to 25
O=C(Nc1ncc(Cc2ccccc2)s1)C1c2ccccc2Oc2ccccc21 [compound 89] | +++ (“+++” means >100%) | < 10
O=C(Nc1ncc(Cc2ccccc2Cl)s1)C1c2ccccc2Oc2ccccc21 [compound 90] | +++ (“+++” means >100%) | < 10
O=C(Nc1ncc(Cc2ccccc2Cl)s1)C(c1ccccc1)C1CCCCC1 (centres unmarked) [compound 91] | +++ (“+++” means >100%) | < 10
O=C(Nc1ncc(Cc2ccccc2)o1)C(c1ccccc1)C1CCCCC1 (centres unmarked) [compound 92] | ++ (“++” means between 25% to 100%) | < 10
O=C(Nc1ncc(Cc2ccccc2)s1)C1c2ccccc2-c2ccccc21 [compound 93] | +++ (“+++” means >100%) | < 10
